In one data set the target is T1, AT-1 receptor (Homo sapiens, UniProt P30556).
T1 construct: found prominent expression of the receptor on the cell surface; endogenous in cells; host or cells: human fetal brain-derived neural stem/progenitor cells (NSC/NPC), 7-8 weeks gestation
T1 sequence (P30556 1-359): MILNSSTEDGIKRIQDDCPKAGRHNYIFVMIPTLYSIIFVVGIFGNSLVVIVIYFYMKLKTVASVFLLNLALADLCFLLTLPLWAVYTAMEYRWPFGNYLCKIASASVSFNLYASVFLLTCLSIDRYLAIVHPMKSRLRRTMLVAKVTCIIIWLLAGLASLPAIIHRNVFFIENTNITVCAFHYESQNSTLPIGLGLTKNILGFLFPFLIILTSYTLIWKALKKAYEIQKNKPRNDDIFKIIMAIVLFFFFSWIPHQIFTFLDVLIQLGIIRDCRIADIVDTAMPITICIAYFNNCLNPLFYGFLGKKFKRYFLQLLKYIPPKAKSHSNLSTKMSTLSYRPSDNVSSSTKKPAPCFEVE
Particulars: in vitro, IgG from pre-eclamptic patients; cited from earlier work.

The test system of the next data set is human NSC. As to the kind of experiment: NSC proliferation by BrdU incorporation. Particulars: preliminary in vitro study. Format: cell-based. How it is done: Cell Cultures. Reagents for cell culture were purchased from Invitrogen (Carlsbad, Calif.) if not otherwise specified. Human NPC were cultured as published previously ^24 in accordance with NIH guidelines and following approval by the Institutional Review Board at Johns Hopkins University and the National Institutes of Health. Briefly, human fetal brain specimens of 7-8 weeks gestation were obtained from Birth Defects Research Laboratory, University of Washington, Seattle. The tissues were then triturated into single cells after removing meninges and blood vessels. […] NSC cultures were ready for experiments 4-5 days after replating and >98% of the cells expressed the neural stem cell marker, nestin while <1% of the cells expressed glial fibrillary acidic protein (GFAP, a marker for astrocytes) or beta-III tubulin (a neuronal cell marker) as determined by immunocytochemistry.
Cell Proliferation and Differentiation Assays. Cell proliferation was assessed by BrdU incorporation. […]
MCAD-IgG Inhibits NSC Proliferation. […] The number of proliferating cells were determined by calculating the percentage of BrdU immunopositive cells. […] Cell toxicity was also evaluated using cellquanti-blue assay. […]
(In general: Incorporation of labelled thymidine or its analogues reports DNA synthesis.)

For data set [1], the system named is NSC treated with MCAD-IgG. As to the kind of experiment: Attenuation of MCAD-IgG effect on NSC differentiation (beta-III tubulin/GFAP immunostaining). The class given is cell-based, human. Here is the method:
Cell Proliferation and Differentiation Assays. Cell proliferation was assessed by BrdU incorporation. The cells were first treated with MCAD or control antibodies for 18 hours and then for 6 hours with BrdU (Sigma) followed by immunostaining for BrdU. When subjected to differentiation, media was replaced with DMEM/F12 containing 2% FBS. The NPC were capable of differentiating into neurons (40-60%) and astrocytes (20-50%) after 4-7 days. Immunocytochemistry. Cells were fixed in 4% (w/v) paraformaldehyde and permeabilized by incubation in 0.5% (v/v) Triton X-100 in PBS (PBS-T) for 20 min. For BrdU staining, the cells were also denatured in 2N HCl at 37° C. for 30 min and rinsed twice in 0.1 M sodium borate, pH 8.5. Cells were immunostained using monoclonal anti-BrdU (1:1000; Sigma-Aldrich), monoclonal anti-β-III-tubulin (1:1000; Promega), rabbit anti-GFAP (1:1000; Sigma-Aldrich), monoclonal anti-AT-1 (1:50; Abcam, Cambridge Mass.) or rabbit anti-active caspase-3 (1:1000; Sigma-Aldrich), followed by corresponding secondary antibodies (anti-rabbit Alexa Fluor 488, 1:400; anti-mouse Alexa Fluor […], 1:400; Invitrogen) and 4′,6-diamidino-2-phenylindole (DAPI) for nuclear staining. Images were acquired on a Zeiss LSM 510 META multiphoton confocal system (Carl Zeiss). […] Neurogenesis was determined after 4 days using immunostaining for beta-III tubulin and GFAP.

For a further data set, the system named is NSC. Nature of the data set: CellQuanti-Blue cytotoxicity assay. Format: cell-based. Particulars: higher concentrations, 10-100 uM. How it is done: Cytotoxicity Assays. Cytotoxicity was determined by using CellQuanti-Blue Cell Viability Assay kit (BioAssay Systems) as previously published^24. Briefly, NSCs were cultured in poly-D-lysine coated 96-well plates and used for experiments at ˜60% confluence. […] After 24 hours, CellQuanti-Blue solution (10 μl/well) was added and the cells were incubated for 1 hour. The fluorescence was quantified at an excitation wavelength of 530 nm and emission wavelength of 590 nm using a fluorescence plate reader.
MCAD-IgG Inhibits NSC Proliferation. The effect of MCAD on NSC proliferation was studied by exposing cultured human NSC to corresponding concentrations (1:500 to 1:50) of MCAD or MUC antibodies for 24 hours in the presence of BrdU for the last 6 hours. The number of proliferating cells were determined by calculating the percentage of BrdU immunopositive cells. […] Another group of NSC similarly treated with the MCAD or MUC antibodies were also immunostained for active-caspase-3 to determine if MCAD-IgG could induce apoptosis in these cells. […] Cell toxicity was also evaluated using cellquanti-blue assay. To exclude the effect of cell proliferation, NSC cultures were treated with MCAD- or MUC-IgG in growth factor-free media for 24 hours before the cellquanti-blue solution was added. […] Thus MCAD-IgG inhibited NSC proliferation without causing cell death.

As for `CCCCc1nc(Cl)c(CO)n1Cc1ccc(-c2ccccc2-c2nn[nH]n2)cc1` [losartan], the “blockade of patient IgG-induced constriction of villus veins and arteries” value at AT-1 receptor is recorded as “could be blocked”.

As to `Fc1ccc([C@@H]2CCNC[C@H]2COc2ccc3c(c2)OCO3)cc1` [Paroxetine, paroxetine], the “proliferation of NSC” value in the data set on human NSC is “increased proliferation of NSC in a concentration-dependent manner”. In data set [1] (20 nM-2 uM, 1 hour prior to MCAD-IgG (1:50), after 4 days), the “effect on MCAD-IgG caused inhibition of neurogenesis and enhanced astroglial differentiation” value is “reversed MCAD-IgG caused inhibition of neurogenesis and enhanced astroglial differentiation”.

For `CCCc1nc2c(C)cc(-c3nc4ccccc4n3C)cc2n1Cc1ccc(-c2ccccc2C(=O)O)cc1` [Telmisartan], in the data set on NSC, the “toxicity in cells, cellquanti-blue” value is “caused toxicity in cells”. In data set [1] (10 nM, pretreatment 30 min prior to IgG), the “effect on MCAD-IgG caused changes in neuronal and astroglial differentiation” value is “significantly attenuated MCAD-IgG caused effect on neuronal and astroglial differentiation”.

These data come from patent US10837969B2, “Therapeutic and diagnostic methods for autism spectrum disorders and other conditions” (THE JOHNS HOPKINS UNIVERSITY, priority 2012, dated 2020).
